Experimental data reported in US20230085307A1, “PYRIDAZINONE COMPOUND AND HERBICIDE” (NISSAN CHEMICAL CORPORATION, priority 2019, published 2023).

Legend:
[1] = tested on: Italian ryegrass; assay: Test Example 5: herbicidal effect by foliage application, plastic box (Table 20, symbol K); type: in vivo, Italian ryegrass (Lolium multiflorum); settings: foliage application, 320 g/ha, evaluated three weeks after application
Procedure, shortened: (§1)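 Sow seeds spot-wise in sterilized diluvial soil; cover with ~1.5 cm soil. Grow 14 days in greenhouse, 25° C. to 30° C. Spray foliage with emulsion diluted to predetermined amount. Rate effect after 3 weeks.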

[2] = tested on: barnyard grass; assay: Test Example 5: herbicidal effect by foliage application, plastic box (Table 20, symbol H); type: in vivo, barnyard grass (Echinochloa crus-galli); settings: foliage application, 320 g/ha, evaluated three weeks after application
Procedure, shortened: as §1

[3] = tested on: chickweed; assay: Test Example 4: herbicidal effect by soil treatment (Table 19, symbol P); type: in vivo, common chickweed (Stellaria media); settings: amount of applied herbicide 320 g/ha
Procedure, shortened: (§2)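 Soil-surface application: an emulsion agent diluted with water to the predetermined dose is sprayed uniformly over seeds lying under roughly 1.5 cm of sterilized diluvial soil. Boxes stay in a greenhouse at 25° C. to 30° C. Three weeks later, each species is graded on previously defined criteria.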

[4] = tested on: Japanese bulrush; assay: Test Example 1: herbicidal activity, application before weed generation under submerged conditions (Table 16, symbol B); type: in vivo, Japanese bulrush (Schoenoplectus juncoides); settings: 320 g/ha applied herbicide
Procedure, shortened: (§3)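 Submerged Wagner pots (alluvial soil, 4 cm water) sown with weed seeds and planted with 2.5-leaf rice seedlings; emulsifiable concentrate diluted in water applied to water surface on sowing day. Held in greenhouse at 25-30 °C; injury scored 0-5 by herbicidal rate after three weeks.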

[5] = tested on: southern crabgrass; assay: Test Example 5: herbicidal effect by foliage application, plastic box (Table 20, symbol F); type: in vivo, southern crabgrass (Digitaria ciliaris); settings: foliage application, 320 g/ha, evaluated three weeks after application
Procedure, shortened: as §1

[6] = tested on: persian speedwell; assay: Test Example 5: herbicidal effect by foliage application, plastic box (Table 20, symbol R); type: in vivo, Persian speedwell (Veronica persica); settings: foliage application, 320 g/ha, evaluated three weeks after application
Procedure, shortened: as §1

[7] = tested on: redroot pigweed; assay: Test Example 4: herbicidal effect by soil treatment (Table 19, symbol N); type: in vivo, redroot pigweed (Amaranthus retroflexus); settings: amount of applied herbicide 320 g/ha
Procedure, shortened: as §2

[8] = tested on: redroot pigweed; assay: Test Example 5: herbicidal effect by foliage application, plastic box (Table 20, symbol N); type: in vivo, redroot pigweed (Amaranthus retroflexus); settings: foliage application, 320 g/ha, evaluated three weeks after application
Procedure, shortened: as §1

[9] = tested on: wild oat; assay: Test Example 5: herbicidal effect by foliage application, plastic box (Table 20, symbol I); type: in vivo, wild oat (Avena fatua); settings: foliage application, 320 g/ha, evaluated three weeks after application
Procedure, shortened: as §1

[10] = tested on: barnyard grass; assay: Test Example 3: herbicidal effect by foliage application, Wagner pot (Table 18, symbol H); type: in vivo, barnyard grass (Echinochloa crus-galli); settings: amount of applied herbicide 320 g/ha
Procedure, shortened: (§4)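 Plants were sown in alluvial soil held under 0.1–0.5 cm standing water and grown 14 days in a greenhouse at 25–30 °C. An emulsifiable formulation, water-diluted to the set dose, was then sprayed onto the foliage, and effects were scored three weeks later using previously defined criteria.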

[11] = tested on: Chinese sprangletop; assay: Test Example 3: herbicidal effect by foliage application, Wagner pot (Table 18, symbol D); type: in vivo, chinese sprangletop (Leptochloa chinensis); settings: amount of applied herbicide 320 g/ha
Procedure, shortened: as §4

[12] = tested on: blackgrass; assay: Test Example 5: herbicidal effect by foliage application, plastic box (Table 20, symbol J); type: in vivo, blackgrass (Alopecurus myosuroides); settings: foliage application, 320 g/ha, evaluated three weeks after application
Procedure, shortened: as §1

[13] = tested on: wild oat; assay: Test Example 4: herbicidal effect by soil treatment (Table 19, symbol I); type: in vivo, wild oat (Avena fatua); settings: amount of applied herbicide 320 g/ha
Procedure, shortened: as §2

[14] = tested on: windgrass; assay: Test Example 4: herbicidal effect by soil treatment (Table 19, symbol L); type: in vivo, windgrass (Apera spica-venti); settings: amount of applied herbicide 320 g/ha
Procedure, shortened: as §2

[15] = tested on: southern crabgrass; assay: Test Example 4: herbicidal effect by soil treatment (Table 19, symbol F); type: in vivo, southern crabgrass (Digitaria ciliaris); settings: amount of applied herbicide 320 g/ha
Procedure, shortened: as §2

[16] = tested on: Italian ryegrass; assay: Test Example 4: herbicidal effect by soil treatment (Table 19, symbol K); type: in vivo, Italian ryegrass (Lolium multiflorum); settings: amount of applied herbicide 320 g/ha
Procedure, shortened: as §2

[17] = tested on: persian speedwell; assay: Test Example 4: herbicidal effect by soil treatment (Table 19, symbol R); type: in vivo, Persian speedwell (Veronica persica); settings: amount of applied herbicide 320 g/ha
Procedure, shortened: as §2

[18] = tested on: rice flat sedge; assay: Test Example 3: herbicidal effect by foliage application, Wagner pot (Table 18, symbol E); type: in vivo, rice flat sedge (Cyperus iria); settings: amount of applied herbicide 320 g/ha
Procedure, shortened: as §4

[19] = tested on: oval-leafed pondweed; assay: Test Example 1: herbicidal activity, application before weed generation under submerged conditions (Table 16, symbol C); type: in vivo, oval-leafed pondweed (Monochoria vaginalis); settings: 320 g/ha applied herbicide
Procedure, shortened: as §3

[20] = tested on: blackgrass; assay: Test Example 4: herbicidal effect by soil treatment (Table 19, symbol J); type: in vivo, blackgrass (Alopecurus myosuroides); settings: amount of applied herbicide 320 g/ha
Procedure, shortened: as §2

[21] = tested on: late watergrass; assay: Test Example 1: herbicidal activity, application before weed generation under submerged conditions (Table 16, symbol A); type: in vivo, late watergrass (Echinochloa oryzicola); settings: 320 g/ha applied herbicide
Procedure, shortened: as §3

[22] = tested on: barnyard grass; assay: Test Example 4: herbicidal effect by soil treatment (Table 19, symbol H); type: in vivo, barnyard grass (Echinochloa crus-galli); settings: amount of applied herbicide 320 g/ha
Procedure, shortened: as §2

[23] = tested on: windgrass; assay: Test Example 5: herbicidal effect by foliage application, plastic box (Table 20, symbol L); type: in vivo, windgrass (Apera spica-venti); settings: foliage application, 320 g/ha, evaluated three weeks after application
Procedure, shortened: as §1

[24] = tested on: velvetleaf; assay: Test Example 5: herbicidal effect by foliage application, plastic box (Table 20, symbol M); type: in vivo, velvetleaf (Abutilon theophrasti); settings: foliage application, 320 g/ha, evaluated three weeks after application
Procedure, shortened: as §1

[25] = tested on: green foxtail; assay: Test Example 5: herbicidal effect by foliage application, plastic box (Table 20, symbol G); type: in vivo, green foxtail (Setaria viridis); settings: foliage application, 320 g/ha, evaluated three weeks after application
Procedure, shortened: as §1

[26] = tested on: velvetleaf; assay: Test Example 4: herbicidal effect by soil treatment (Table 19, symbol M); type: in vivo, velvetleaf (Abutilon theophrasti); settings: amount of applied herbicide 320 g/ha
Procedure, shortened: as §2

[27] = tested on: lambsquarters; assay: Test Example 5: herbicidal effect by foliage application, plastic box (Table 20, symbol O); type: in vivo, lambsquarters (Chenopodium album); settings: foliage application, 320 g/ha, evaluated three weeks after application
Procedure, shortened: as §1

[28] = tested on: lambsquarters; assay: Test Example 4: herbicidal effect by soil treatment (Table 19, symbol O); type: in vivo, lambsquarters (Chenopodium album); settings: amount of applied herbicide 320 g/ha
Procedure, shortened: as §2

[29] = tested on: chickweed; assay: Test Example 5: herbicidal effect by foliage application, plastic box (Table 20, symbol P); type: in vivo, common chickweed (Stellaria media); settings: foliage application, 320 g/ha, evaluated three weeks after application
Procedure, shortened: as §1

[30] = tested on: green foxtail; assay: Test Example 4: herbicidal effect by soil treatment (Table 19, symbol G); type: in vivo, green foxtail (Setaria viridis); settings: amount of applied herbicide 320 g/ha
Procedure, shortened: as §2

## CCCSc1cccc(-c2sc3ccc(F)cc3c2-c2c(O)c(C)nn(C)c2=O)c1 [2-246]
[1]
  herbicidal effect on K: Italian ryegrass (criteria 0-5): 2 (Herbicidal rate of 20% or more and less than 40%)
[2]
  herbicidal effect on H: barnyard grass (criteria 0-5): 0 (Herbicidal rate of 5% or less (almost no effect))
[3]
  herbicidal effect on P: chickweed: 3 (Herbicidal rate of 40% or more and less than 70%)
[4]
  Herbicidal effect on B: Japanese bulrush (grade 0-5): 0 (Herbicidal rate of 5% or less (almost no effect))
[5]
  herbicidal effect on F: southern crabgrass (criteria 0-5): 0 (Herbicidal rate of 5% or less (almost no effect))
[6]
  herbicidal effect on R: persian speedwell (criteria 0-5): 5 (Herbicidal rate of 90% or more (almost completely withered))
[7]
  herbicidal effect on N: redroot pigweed: 0 (Herbicidal rate of 5% or less (almost no effect))
[8]
  herbicidal effect on N: redroot pigweed (criteria 0-5): 3 (Herbicidal rate of 40% or more and less than 70%)
[9]
  herbicidal effect on I: wild oat (criteria 0-5): 4 (Herbicidal rate of 70% or more and less than 90%)
[10]
  herbicidal effect on H: barnyard grass: 3 (Herbicidal rate of 40% or more and less than 70%)
[11]
  herbicidal effect on D: Chinese sprangletop: 0 (Herbicidal rate of 5% or less (almost no effect))
[12]
  herbicidal effect on J: blackgrass (criteria 0-5): 1 (Herbicidal rate of 5% or more and less than 20%)
[13]
  herbicidal effect on I: wild oat: 0 (Herbicidal rate of 5% or less (almost no effect))
[14]
  herbicidal effect on L: windgrass: 0 (Herbicidal rate of 5% or less (almost no effect))
[15]
  herbicidal effect on F: southern crabgrass: 0 (Herbicidal rate of 5% or less (almost no effect))
[16]
  herbicidal effect on K: Italian ryegrass: 0 (Herbicidal rate of 5% or less (almost no effect))
[17]
  herbicidal effect on R: persian speedwell: 5 (Herbicidal rate of 90% or more (almost completely withered))
[18]
  herbicidal effect on E: rice flat sedge: 3 (Herbicidal rate of 40% or more and less than 70%)
[19]
  Herbicidal effect on C: oval-leafed pondweed (grade 0-5): 0 (Herbicidal rate of 5% or less (almost no effect))
[20]
  herbicidal effect on J: blackgrass: 0 (Herbicidal rate of 5% or less (almost no effect))
[21]
  Herbicidal effect on A: late watergrass (grade 0-5): 2 (Herbicidal rate of 20% or more and less than 40%)
[22]
  herbicidal effect on H: barnyard grass: 0 (Herbicidal rate of 5% or less (almost no effect))
[23]
  herbicidal effect on L: windgrass (criteria 0-5): 3 (Herbicidal rate of 40% or more and less than 70%)
[24]
  herbicidal effect on M: velvetleaf (criteria 0-5): 3 (Herbicidal rate of 40% or more and less than 70%)
[25]
  herbicidal effect on G: green foxtail (criteria 0-5): 0 (Herbicidal rate of 5% or less (almost no effect))
[26]
  herbicidal effect on M: velvetleaf: 0 (Herbicidal rate of 5% or less (almost no effect))
[27]
  herbicidal effect on O: lambsquarters (criteria 0-5): 0 (Herbicidal rate of 5% or less (almost no effect))
[28]
  herbicidal effect on O: lambsquarters: 0 (Herbicidal rate of 5% or less (almost no effect))
[29]
  herbicidal effect on P: chickweed (criteria 0-5): 5 (Herbicidal rate of 90% or more (almost completely withered))
[30]
  herbicidal effect on G: green foxtail: 0 (Herbicidal rate of 5% or less (almost no effect))
